Laboratory results as given in patent US12145920B2, “Lanthionine c-like protein 2 ligands, cells prepared therewith, and therapies using same” (NImmune Biopharma, Inc., priority 2019, dated 2024).

Legend:
MDR1a-/- mice = assay: MDR1a-/- chronic model of IBD; assay type: in vivo
Procedure: MDR1a−/− model. Mice deficient in MDR1a spontaneously develop colitis. MDR1a−/− began receiving BT-63 treatment (oral, 20 mg/kg) at 6 weeks of age and continued treatment until 10 weeks of age. Mice were weighed and scored weekly. Treatment administration. BT-63 was prepared within a 0.5% methylcellulose (12-15 cP) solution. Dosage used was 20 mg/kg delivered once daily. Mice were weighed on a weekly basis to update dosage formulation. Dosage was calculated based off mean body weights for each gender. Oral dosage was delivered by orogastric gavage of dosage in 0.2 mL volume. Flow Cytometry. […]
collagenase (300U/mL) and DNase (50U/mL) for digestion. Tissues were digested for 60 minutes under stirring at 37° C. Resultant cellular suspensions were filtered through 100 μm strainers, centrifuged (300×g, 8 min), and washed in fresh RPMI. Following filtration of the resulting single cell suspensions, immune cells were purified by Percoll gradient of cell-containing 40% Percoll overlayed onto 70% Percoll solution. After centrifugation, interphase was collected and washed to obtain enriched colonic lamina propria cell fractions. Cells were labeled with mixtures of extracellular (CD45, CD3, CD4, CD8, CD19, NK1.1, CD25, F4/80, CD11b, Gr1, CX3CR1, CD64) and intracellular (Tbet, RORyT, FOXP3, IFNγ, IL17, IL10) antibodies in a sequential live staining in 96-well plates. Data was acquired using a FACS Celesta flow cytometer with FACSDiva software.

[1] = system: colonic CD4+ T cells from Mdr1a-/- mice; assay: Gene expression in colonic CD4+ T cells of treated Mdr1a-/- mice; assay type: in vivo; details: oral treatment, 10 weeks of age
Text: To identify signaling pathways modulated by BT-63 in vivo, we will isolate colonic CD4+ T cells from vehicle- and BT-63-treated Mdr1a−/− mice at presentation of colitis at 10 weeks of age. […] Meanwhile, expression of Pten and Ph1pp1 will increase. […] Cells will also be differentiated in the presence of inhibitors for PTEN (SF1670) or STATS (STAT5i). In the Treg differentiation media containing both IL-2 or IL-12, the addition of STAT5i will prevent the effects of BT-63 on CD25+ FOXP3+ and CD25+ Tbet+ cells. In contrast, SF1670 only will prevent effects of BT-63 on CD25+ Tbet+ cells in IL-2 containing media.

[2] = colonic lamina propria, four weeks oral 20 mg/kg
[3] = spleen, four weeks oral 20 mg/kg

**Q.** What does the source list for `O=C(CN1CCN(C(=O)c2cccc(-c3nc4ccccc4[nH]3)n2)CC1)c1ccccc1` [BT-63, 2-(4-(6-(1H-benzo[d]imidazol-2-yl)picolinoyl)piperazin-1-yl)-1-phenylethanone]?
**A.** proportions of regulatory CD4+ CD25+ T cells (MDR1a-/- mice; colon, four weeks oral 20 mg/kg): increased; proportions of Th1 (MDR1a-/- mice; [2]): reduces; proportions of Th17 (MDR1a-/- mice; [2]): reduces; proportions of neutrophils (MDR1a-/- mice; [2]): reduces; splenic CD25+ Tregs (MDR1a-/- mice; [3]): increased; splenic Th1 cells (MDR1a-/- mice; [3]): decreased; maximal observed reduction of disease activity (MDR1a-/- mice; week four of treatment, oral 20 mg/kg): 90%; expression of Foxo1 [1]: significantly higher expression; expression of Ph1pp1 [1]: increase; expression of Pten [1]: increase; expression of Stat5a [1]: significantly higher expression
